Test results: ChEMBL document CHEMBL1128323, “Antifungal agents. 9. 3-Aryl-4-[alpha-(1H-imidazol-1-yl)arylmethyl]pyrroles: a new class of potent anti-Candida agents” (1995)
In brackets after ≈: the same amount, converted by molar mass.

Legend:
Format in all cases: functional
Candida albicans [1] = test: Percent resistance against Candida albicans (40 clinical isolates) at 256 micro g/mL (pH=5.8), activity is expressed as R%.
Candida albicans [2] = test: Resistance against Candida. albicans (40 clinical isolates) at 256 ug/mL (pH=7.2), activity is expressed as R%.
Candida albicans [3] = test: Inhibitory activity against Candida albicans (40 clinical isolates), determined at pH-5.8
Candida albicans [4] = test: Inhibitory activity against Candida albicans (40 clinical isolates), determined at pH-7.2
Candida [5] = test: Inhibitory activity against Candida. species. (40 clinical isolates), determined at pH-5.8
Candida [6] = test: Inhibitory activity against Candida. species. (40 clinical isolates), determined at pH-7.2
Candida [7] = test: Inhibitory activity against Candida. species (40 clinical isolates), determined at pH-5.8
Candida [8] = test: 50% inhibitory activity against the Candida. species (40 clinical isolates) was determined at pH-7.2
Candida [9] = test: 90% inhibitory activity against Candida. species (40 clinical isolates) determined at pH-7.2
Candida [10] = test: Resistance against all Candida. species (40 clinical isolates) at 256 micro g/mL (pH=5.8). Activity is expressed as R%.
Candida [11] = test: Percent resistance against all Candida. species (40 clinical isolates) at 256 micro g/mL (pH=7.2), activity is expressed as R%.
Candida albicans [12] = test: Inhibitory activity against the Candida albicans (40 clinical isolates), determined at pH-5.8
Candida albicans [13] = test: Inhibitory activity against the Candida albicans (40 clinical isolates), determined at pH-7.2
Candida albicans [14] = test: 50% inhibitory activity against Candida albicans (40 clinical isolates) determined at pH-5.8
Candida albicans [15] = test: 50% inhibitory activity against Candida albicans (40 clinical isolates) determined at pH-7.2
[16] = Candida albicans, read-out: MIC50

Row | SMILES | R (Candida albicans [1]) [%] | R (Candida albicans [2]) [%] | MIC (Candida albicans [3]) [µg/mL] | MIC (Candida albicans [4]) [µg/mL] | MIC (Candida [5]) [µg/mL] | MIC (Candida [6]) [µg/mL] | MIC50 (Candida [7]) [µg/mL] | MIC90 (Candida [7]) [µg/mL] | MIC50 (Candida [8]) [µg/mL] | MIC90 (Candida [9]) [µg/mL] | R (Candida [10]) [%] | R (Candida [11]) [%] | MIC90 (Candida albicans [12]) [µg/mL] | MIC90 (Candida albicans [13]) [µg/mL] | MIC50 (Candida albicans [14]) [µg/mL] | MIC50 (Candida albicans [15]; [16]) [µg/mL] | MIC50 (Candida albicans [15]) [µg/mL]
1 | Fc1ccc(C(c2c[nH]cc2-c2ccccc2Cl)n2ccnc2)cc1 (centres undefined) | 0 | 0 | 48.3 (≈ 137 µM) | 36.5 (≈ 104 µM) | 71.1 (≈ 202 µM) | 107 (≈ 305 µM) | 64 (≈ 182 µM) | 64 (≈ 182 µM) | 64 (≈ 182 µM) | 256 (≈ 728 µM) | 0 | 0 | 64 (≈ 182 µM) | 64 (≈ 182 µM) | 32 (≈ 91 µM) | 32 (≈ 91 µM) | –
2 | Clc1ccc(-c2c[nH]cc2C(c2ccc(-n3cccc3)cc2)n2ccnc2)cc1 (centres undefined) | 16 | 20 | > 119 | > 121 | > 156 | > 229 | 64 (≈ 160 µM) | > 256 | 256 (≈ 642 µM) | 256 (≈ 642 µM) | 40 | 50 | 256 (≈ 642 µM) | 256 (≈ 642 µM) | 64 (≈ 160 µM) | 64 (≈ 160 µM) | –
3 | Clc1ccc(C(c2c[nH]cc2-c2ccccc2)n2ccnc2)c(Cl)c1 (centres undefined) | 100 | 100 | > 256 | > 256 | > 256 | > 256 | > 256 | > 256 | > 256 | > 256 | 100 | 100 | > 256 | > 256 | > 256 | > 256 | –
4 | Clc1ccc(C(c2c[nH]cc2-c2ccc(Cl)cc2Cl)n2ccnc2)cc1 (centres undefined) | 0 | 5 | > 6.8 | > 66.4 | 13.7 (≈ 34 µM) | > 212 | 16 (≈ 39.7 µM) | 16 (≈ 39.7 µM) | 64 (≈ 159 µM) | > 256 | 0 | 40 | 256 (≈ 636 µM) | 256 (≈ 636 µM) | 4 (≈ 9.93 µM) | 8 (≈ 19.9 µM) | –
5 | c1ccc(-c2c[nH]cc2C(c2ccc(-n3cccc3)cc2)n2ccnc2)cc1 (centres undefined) | 0 | 0 | 30.4 (≈ 83.4 µM) | 37.3 (≈ 102 µM) | 40 (≈ 110 µM) | 42.1 (≈ 116 µM) | 32 (≈ 87.8 µM) | 64 (≈ 176 µM) | 32 (≈ 87.8 µM) | 64 (≈ 176 µM) | 0 | 0 | 32 (≈ 87.8 µM) | 32 (≈ 87.8 µM) | 16 (≈ 43.9 µM) | 16 (≈ 43.9 µM) | –
6 | Clc1ccc(C(c2c[nH]cc2-c2ccccc2)n2ccnc2)cc1Cl (centres undefined) | 0 | 0 | 38.6 (≈ 105 µM) | 41.9 (≈ 114 µM) | 114 (≈ 311 µM) | 191 (≈ 519 µM) | 64 (≈ 174 µM) | 64 (≈ 174 µM) | 128 (≈ 348 µM) | 256 (≈ 695 µM) | 0 | 20 | 64 (≈ 174 µM) | 64 (≈ 174 µM) | 16 (≈ 43.4 µM) | 16 (≈ 43.4 µM) | –
7 | O=[N+]([O-])c1ccc(C(c2c[nH]cc2-c2ccc(Cl)c(Cl)c2)n2ccnc2)cc1 (centres undefined) | 50 | 50 | > 283 | > 312 | > 256 | > 256 | > 256 | > 256 | > 256 | > 256 | 100 | 100 | > 256 | > 256 | 256 (≈ 619 µM) | 256 (≈ 619 µM) | –
8 | Clc1ccc(C(c2c[nH]cc2-c2ccccc2Cl)n2ccnc2)cc1 (centres undefined) | 0 | 0 | 18.7 (≈ 50.8 µM) | 9.1 (≈ 24.7 µM) | 30.2 (≈ 82 µM) | 15 (≈ 40.7 µM) | 32 (≈ 86.9 µM) | 64 (≈ 174 µM) | 16 (≈ 43.4 µM) | 16 (≈ 43.4 µM) | 0 | 0 | 32 (≈ 86.9 µM) | 16 (≈ 43.4 µM) | – | 8 (≈ 21.7 µM) | 16 (≈ 43.4 µM)
9 | Nc1ccc(C(c2c[nH]cc2-c2ccc(Cl)cc2)n2ccnc2)cc1 (centres undefined) | 0 | 0 | 42.8 (≈ 123 µM) | 98.2 (≈ 282 µM) | 82.5 (≈ 237 µM) | 184 (≈ 527 µM) | 82.5 (≈ 237 µM) | 82.5 (≈ 237 µM) | 128 (≈ 367 µM) | 128 (≈ 367 µM) | 0 | 0 | 128 (≈ 367 µM) | 128 (≈ 367 µM) | 32 (≈ 91.7 µM) | 64 (≈ 183 µM) | –
10 | Clc1ccc(-c2c[nH]cc2C(c2ccc(Cl)cc2Cl)n2ccnc2)cc1 (centres undefined) | 0 | 0 | 3.94 (≈ 9.78 µM) | 3.6 (≈ 8.94 µM) | 14.4 (≈ 35.8 µM) | 61 (≈ 151 µM) | 16 (≈ 39.7 µM) | 32 (≈ 79.5 µM) | 32 (≈ 79.5 µM) | 128 (≈ 318 µM) | 0 | 0 | 8 (≈ 19.9 µM) | 8 (≈ 19.9 µM) | 2 (≈ 4.97 µM) | 2 (≈ 4.97 µM) | –
11 | Cc1ccc(C(c2c[nH]cc2-c2ccc(Cl)cc2Cl)n2ccnc2)cc1 (centres undefined) | 0 | 0 | 7.9 (≈ 20.7 µM) | 13.1 (≈ 34.3 µM) | 16.4 (≈ 42.9 µM) | > 224 | 16 (≈ 41.9 µM) | 32 (≈ 83.7 µM) | 256 (≈ 670 µM) | > 256 | 0 | 50 | 16 (≈ 41.9 µM) | 16 (≈ 41.9 µM) | 8 (≈ 20.9 µM) | 8 (≈ 20.9 µM) | –
12 | Clc1ccc(-c2c[nH]cc2C(c2ccc(-n3cccc3)cc2)n2ccnc2)c(Cl)c1 (centres undefined) | 0 | 100 | 33.7 (≈ 77.8 µM) | > 256 | 19.5 (≈ 45 µM) | > 256 | 16 (≈ 36.9 µM) | 32 (≈ 73.8 µM) | > 256 | > 256 | 0 | 100 | 64 (≈ 148 µM) | > 256 | 16 (≈ 36.9 µM) | > 256 | –
13 | Clc1ccccc1-c1c[nH]cc1C(c1ccccc1)n1ccnc1 (centres undefined) | 0 | 0 | 43.8 (≈ 131 µM) | 19.2 (≈ 57.5 µM) | 78.2 (≈ 234 µM) | 22.6 (≈ 67.7 µM) | 64 (≈ 192 µM) | 32 (≈ 95.9 µM) | 32 (≈ 95.9 µM) | 64 (≈ 192 µM) | 0 | 0 | 64 (≈ 192 µM) | 32 (≈ 95.9 µM) | – | 16 (≈ 47.9 µM) | 32 (≈ 95.9 µM)
14 | Clc1ccc(C(c2c[nH]cc2-c2ccccc2Cl)n2ccnc2)c(Cl)c1 (centres undefined) | 0 | 0 | 5.19 (≈ 12.9 µM) | 7.3 (≈ 18.1 µM) | 13.7 (≈ 34 µM) | 21.8 (≈ 54.1 µM) | 16 (≈ 39.7 µM) | 16 (≈ 39.7 µM) | 32 (≈ 79.5 µM) | 32 (≈ 79.5 µM) | 0 | 0 | 16 (≈ 39.7 µM) | 16 (≈ 39.7 µM) | 4 (≈ 9.93 µM) | 4 (≈ 9.93 µM) | –
15 | Clc1ccc(-c2c[nH]cc2C(c2ccccc2)n2ccnc2)cc1Cl (centres undefined) | 0 | 0 | 7.2 (≈ 19.6 µM) | > 10.9 | 19.1 (≈ 51.9 µM) | 11.4 (≈ 31 µM) | 16 (≈ 43.4 µM) | 32 (≈ 86.9 µM) | 16 (≈ 43.4 µM) | 16 (≈ 43.4 µM) | 0 | 0 | 16 (≈ 43.4 µM) | 16 (≈ 43.4 µM) | 8 (≈ 21.7 µM) | 6 (≈ 16.3 µM) | –
16 | Cc1ccc(C(c2c[nH]cc2-c2ccc(Cl)c(Cl)c2)n2ccnc2)cc1 (centres undefined) | 0 | 0 | 7.9 (≈ 20.7 µM) | 5.8 (≈ 15.2 µM) | 14.2 (≈ 37.1 µM) | 17.5 (≈ 45.8 µM) | 16 (≈ 41.9 µM) | 16 (≈ 41.9 µM) | 16 (≈ 41.9 µM) | 32 (≈ 83.7 µM) | 0 | 0 | 16 (≈ 41.9 µM) | 16 (≈ 41.9 µM) | 4 (≈ 10.5 µM) | 4 (≈ 10.5 µM) | –
17 | Fc1ccc(C(c2c[nH]cc2-c2ccc(Cl)c(Cl)c2)n2ccnc2)cc1 (centres undefined) | 0 | 0 | 7.2 (≈ 18.6 µM) | 7.2 (≈ 18.6 µM) | 16.4 (≈ 42.5 µM) | 26.6 (≈ 68.9 µM) | 16 (≈ 41.4 µM) | 32 (≈ 82.8 µM) | 32 (≈ 82.8 µM) | 32 (≈ 82.8 µM) | 0 | 0 | 16 (≈ 41.4 µM) | 16 (≈ 41.4 µM) | 4 (≈ 10.4 µM) | 4 (≈ 10.4 µM) | –
18 | Clc1ccc(-c2c[nH]cc2C(c2ccc(-n3cccc3)cc2)n2ccnc2)cc1Cl (centres undefined) | 40 | 50 | > 264 | > 289 | > 256 | > 438 | > 256 | > 256 | > 256 | > 256 | 100 | 80 | > 256 | > 256 | 128 (≈ 295 µM) | 128 (≈ 295 µM) | –
19 | O=[N+]([O-])c1ccc(C(c2c[nH]cc2-c2ccc(Cl)cc2)n2ccnc2)cc1 (centres undefined) | 0 | 0 | > 60.1 | > 91.8 | > 355 | > 91.8 | > 256 | > 256 | 32 (≈ 84.5 µM) | 64 (≈ 169 µM) | 60 | 10 | 32 (≈ 84.5 µM) | 64 (≈ 169 µM) | 16 (≈ 42.2 µM) | 32 (≈ 84.5 µM) | –
